Experimental data published in PMC10495491 (Parasitology Research, 2023).

Legend:
[1] = tested on: T. gondii tachyzoites; assay: Effects of sulfa drugs on intracellular Toxoplasma gondii in Vero cells (MTT); format: cell-based, Toxoplasma gondii RH strain; conditions: 24 h treatment
Description: For this purpose, Vero cells were cultured in 96-well plates (1×10^4 cells/well) for 24 h in RPMI 1640 medium supplemented with 10% inactivated FBS at 37 °C and 5% CO2. Next, the cells were infected with T. gondii tachyzoites (parasite: cell ratio = 10:1). Four hours following the inoculation, the cells were washed twice with RPMI to remove any non-adherent parasites. […] Cell viability was assayed by MTT method. Twenty microliters of 5 mg/ml MTT (Sigma, USA) was added to each well and the plate was incubated at 37 °C for 3 h. Then, MTT solution was removed, 100 μl DMSO was added, and the absorbance of each well was measured using a Benchmark Microplate Reader (Bio Rad). The optical absorbance was measured at 570-nm wavelength. Growth inhibition (GI) was calculated as in the following equation: GI%=At-Ac/Ac×100
where At and Ac are the absorbance of treated cells and control, respectively. […] Selectivity index (SI) of the samples was calculated using the IC50 and the host-cell cytotoxicity profiles CC50 (SI = CC50/IC50) (Montazeri et al. [2020]) using CompuSyn software (version 1) (Chou [2006]; Chou and Talaly [1977]).

[2] = tested on: T. gondii RH strain tachyzoites; assay: Transmission electron microscopy of intracellular tachyzoites in Vero cells; format: cell-based, Toxoplasma gondii RH strain; conditions: infected Vero cells treated with the IC50 of each compound for 24 h
Description: After confluence of Vero cells in four T-25 culture flasks, T. gondii RH strain tachyzoites, suspended in 5 ml of RPMI, and were added to each flasks in a ratio of 5:1 parasite-host cell (Diab and El-Bahy [2008]). Flasks were incubated for 2 h. After that, the cells were washed twice with culture media to remove extracellular parasites. The cells in culture flasks were incubated in 5 ml of culture media for 24 h at 37 °C in a 5% CO2 (Carvalho and De Melo [2010b]). […] For TEM (Jeol JSM-1400), trypsinization was followed by centrifugation at 2000g for 10 min, and the resulting pellet was fixed in buffered glutaraldehyde-phosphate 2.5% and stored at 4 °C until used (Shaw et al. [2002]). Then, the fixed specimens were washed thoroughly with Millonig phosphate buffer and post-fixed with buffered osmium tetroxide-phosphate. Following that, they were dehydrated in ascending concentrations of ethyl alcohol followed by embedding in epoxy resin. Finally, ultrathin sections were doubly stained with uranyl acetate and lead citrate trihydrate stains and examined under TEM (Winey et al. [2014]).

[3] = tested on: Vero cells; assay: Cytotoxicity test (MTT) on Vero cells; format: cell-based, African green monkey; conditions: 24 h incubation
Description: (§1) Vero cells were seeded at a density of 1×10^4 cells/well in 96-well plate and incubated for 24 h at 37 °C in a 5% CO2 incubator. […] A stock solution in DMSO was initially prepared then diluted 100 times with culture media to obtain the highest concentration, then it was serially diluted. Three replicates for each drug concentration were performed. Cell viability was assayed by MTT method where 20 μl of 5 mg/ml MTT (Sigma, USA) was added to each well, and the plate was incubated at 37 °C for 3 h. Then, MTT solution was removed, 100 μl DMSO was added, and the absorbance of each well was measured using a Benchmark Microplate Reader (Bio Rad). […] [2021]; Montazeri et al. [2020]). Experiments were repeated three times. Vero cell growth suppression (%) was estimated using the following equation: […]×100 using CompuSyn software (version 1) (Chou [2006]; Chou and Talaly [1977]).

[4] = tested on: tachyzoites; conditions: ref Portes et al. [2018]; cited from earlier work
[5] = Cytotoxicity test (MTT) on Vero cells; format: cell-based, African green monkey; conditions: African green monkey, 24 h incubation
Description: as §1

## 4-(4-(hydroxymethyl)-1H-1,2,3-triazol-1-yl)-N-(pyridin-2-yl)benzenesulfonamide [3e]
[1]
  IC50: 53.3 ± 10.5 nM
[2]
  Ultrastructural alterations of intracellular tachyzoites (TEM): large PVs containing multiple vacuolated tachyzoites without nuclei or organelles
[3]
  CC50: 510 ± 22 nM

## Nc1ccc(S(=O)(=O)Nc2ncccn2)cc1 [Sulfadiazine, sulfadiazine]
[4]
  Ultrastructural alterations in tachyzoites after treatment: no significant ultrastructural alterations
[1]; Toxoplasma gondii
  IC50: 185 ± 18.4 nM
[5]
  CC50 at 24 h: 1390 ± 100 nM
